Measured values from patent EP0293880B1, “Antihyperlipidemic and antiatherosclerotic urea compounds” (priority 1987, dated 1988).

biological target: acyl-CoA:cholesterol acyl-transferase (ACAT); assay: In vitro ACAT inhibition test (radio-labeled cholesterol oleate formed from radio-labeled oleic acid in rabbit intestinal microsomes); assay type: biochemical; conditions: tissue preparation containing rabbit intestinal microsomes; concentration required to inhibit 50% expression of the enzyme; read-out: IC₅₀
Method: The ability of representative compounds of the present invention to inhibit ACAT was measured using an in vitro test more fully described in Field, F. J. and Salone, R. G., Biochemica et Biophysica 712: 557-570 (1982). The test assesses the ability of a test compound to inhibit the acylation of cholesterol by oleic acid by measuring the amount of radio-labeled cholesterol oleate formed from radio-labeled oleic acid in a tissue preparation containing rabbit intestinal microsomes. The data appear in Table 1 where they are expressed as IC₅₀ values; i.e. the concentration of test compound required to inhibit 50% expression of the enzyme.

IC50 [nM]	Compound
80	Cc1cccc(C)c1NC(=O)NC1(c2ccccc2)CCCC1 [Example 1, N-(2,6-dimethylphenyl)-N'-(1-phenylcyclopentyl)urea]
230	CCc1cccc(CC)c1NC(=O)NC1(c2ccccc2)CCC1 [Example 2, N-(2,6-diethylphenyl)-N'-(1-phenylcyclobutyl)urea]
120	CCc1cccc(CC)c1NC(=O)NC1(c2ccccc2)CCCC1 [Example 3, N-(2,6-diethylphenyl)-N'-(1-phenylcyclopentyl)urea]
88	CCc1cccc(CC)c1NC(=O)NCC1(c2ccccc2)CC1 [Example 4, N-(2,6-diethylphenyl)-N'-[(1-phenylcyclopropyl)methyl]urea]
700	COc1cc(OC)c(NC(=O)NC2(c3ccccc3)CCCC2)c(OC)c1 [Example 5, N-(1-phenylcyclopentyl)-N'-(2,4,6-trimethoxyphenyl)urea]
130	Cc1cccc(C)c1NC(=O)NC1(c2cccs2)CCCCC1 [Example 6, N-(2,6-dimethylphenyl)-N'-[1-(2-thienyl)cyclohexyl]urea]
48	CCc1cccc(CC)c1NC(=O)NC1(c2cccs2)CCCCC1 [Example 7, N-(2,6-diethylphenyl)-N'-[1-(2-thienyl)cyclohexyl]urea]
43	CC(C)c1cccc(C(C)C)c1NC(=O)NC1(c2cccs2)CCCCC1 [Example 8, N-[2,6-bis(1-methylethyl)]-N'-[1-(2-thienyl)cyclohexyl]urea]
51	CCc1cccc(CC)c1NC(=O)NCC1(c2ccccc2)CCCCC1 [Example 9, N-(2,6-diethylphenyl)-N'-[(1-phenylcyclohexyl)methyl]urea]
154	Cc1cccc(C)c1NC(=O)NCC1(c2ccccc2)CCCC1 [Example 10, N-(2,6-dimethylphenyl)-N'-[(1-phenylcyclopentyl)methyl]urea]
81	Cc1cccc(C)c1NC(=O)NCC1(c2ccccc2)CCCCC1 [Example 11, N-(2,6-dimethylphenyl)-N'-[(1-phenylcyclohexyl)methyl]urea]
15	CCc1cccc(CC)c1NC(=O)NCC1(c2ccccc2)CCCC1 [Example 12, N-(2,6-diethylphenyl)-N'-[(1-phenylcyclopentyl)methyl]urea]
17	CC(C)c1cccc(C(C)C)c1NC(=O)NCC1(c2ccccc2)CCCC1 [Example 13, N-[2,6-bis(1-methylethyl)phenyl]-N'-[(1-phenylcyclopentyl)methyl]urea]
21	CC(C)c1cccc(C(C)C)c1NC(=O)NCC1(c2ccccc2)CCCCC1 [Example 14]
230	Cc1cccc(C(C)C)c1NC(=O)NC1(c2cccs2)CCCCC1 [Example 15, N-[2-methyl-6-(1-methylethyl)-phenyl]-N'-[1-(2-thienyl)cyclohexyl]urea]
256	Cc1cccc(C(C)(C)C)c1NC(=O)NC1(c2cccs2)CCCCC1 [Example 16, N-[2-(1,1-dimethylethyl)-6-methyl-phenyl]-N'-[1-(2-thienyl)cyclohexyl]urea]
58	Cc1cccc(C(C)C)c1NC(=O)NCC1(c2ccccc2)CCCCC1 [Example 17, N-[2-methyl-6-(1-methylethyl)-phenyl]-N'-[(1-phenylcyclohexyl)methyl]urea]
54	Cc1cccc(C(C)(C)C)c1NC(=O)NCC1(c2ccccc2)CCCCC1 [Example 18, N-[2-(1,1-dimethylethyl)-6-methylphenyl]-N'-[(1-phenylcyclohexyl)methyl]-urea]
20	CCc1cccc(C(C)C)c1NC(=O)NCC1(c2ccccc2)CCCCC1 [Example 19, N-[2-ethyl-6-(1-methylethyl)-phenyl]-N'-[(1-phenylcyclohexyl)methyl]urea]
16	Cc1cccc(C(C)C)c1NC(=O)NCC1(c2ccccc2)CCCC1 [Example 20, N-[2-methyl-6-(1-methylethyl)-phenyl]-N'-[(1-phenylcyclopentyl)methyl]urea]
18	Cc1cccc(C(C)(C)C)c1NC(=O)NCC1(c2ccccc2)CCCC1 [Example 21, N-[2-(1,1-dimethylethyl)-6-methylphenyl]-N'-[(1-phenylcyclopentyl)methyl]-urea]
25	CCc1cccc(C(C)C)c1NC(=O)NCC1(c2ccccc2)CCCC1 [Example 22, N-[2-ethyl-6-(1-methylethyl)-phenyl]-N'-[(1-phenylcyclopentyl)methyl]urea]
370	O=C(Nc1ccc(F)cc1F)NC1(c2cccs2)CCCCC1 [Example 23, N-(2,4-difluorophenyl)-N'-[1-(2-thienyl)cyclohexyl]urea]
1280	O=C(NCC1(c2ccccc2)CCCC1)Nc1ccc(F)cc1F [Example 24, N-(2,4-difluorophenyl)-N'-[(1-phenylcyclopentyl)methyl]urea]
790	O=C(NCC1(c2ccccc2)CCCCC1)Nc1ccc(F)cc1F [Example 25, N-(2,4-difluorophenyl)-N'-[(1-phenylcyclohexyl)methyl]urea]
39	O=C(NCC1(c2ccccc2)CCCCC1)Nc1c(Br)cc(F)cc1Br [Example 26, N-(2,6-dibromo-4-fluorophenyl)-N'-[(1-phenyl-cyclohexyl)methyl]urea]

test system: not listed separately; assay: In vivo screen PCC (cholesterol-fed rats, total blood cholesterol); set-up: species or system male Sprague-Dawley rats; conditions: change of total blood cholesterol versus control; 0.05% of the test drug in the diet; after one week
From the text: In one in vivo screen, designated PCC, male Sprague-Dawley rats (approximately 200 g body weight) are randomly divided into groups and provided ad libidum a regular chow diet (Purina No. 5002, Ralston Purina Co., 711 West Fuesser Road, Mascoutah, Illinois, 62224, USA), supplemented with 5.5% peanut oil, 1.5% cholesterol, and 0.3%-0.5% cholic acid, together with 0.05% of the test drug which is admixed into the diet. After one week the animals are etherized and a blood sample is taken from the heart and mixed with 0.14% ethylenediamine tetraacetic acid (EDTA) to measure the total cholesterol.

Compound	% Change [%]
CC(C)c1cccc(C(C)C)c1NC(=O)NC1(c2cccs2)CCCCC1 [Example 8, N-[2,6-bis(1-methylethyl)]-N'-[1-(2-thienyl)cyclohexyl]urea]	-69
CC(C)c1cccc(C(C)C)c1NC(=O)NCC1(c2ccccc2)CCCC1 [Example 13, N-[2,6-bis(1-methylethyl)phenyl]-N'-[(1-phenylcyclopentyl)methyl]urea]	-73

same assay, conditions: rats on chow diet with 5.5% peanut oil, 1.5% cholesterol, 0.3%-0.5% cholic acid; 0.05% of the test drug admixed into the diet; after one week

Compound	Total Blood Cholesterol
CC(C)c1cccc(C(C)C)c1NC(=O)NC1(c2cccs2)CCCCC1 [Example 8, N-[2,6-bis(1-methylethyl)]-N'-[1-(2-thienyl)cyclohexyl]urea]	60 (Control = 181) mg/dl
CC(C)c1cccc(C(C)C)c1NC(=O)NCC1(c2ccccc2)CCCC1 [Example 13, N-[2,6-bis(1-methylethyl)phenyl]-N'-[(1-phenylcyclopentyl)methyl]urea]	61 (Control = 224) mg/dl
